Measurements from ChEMBL document CHEMBL4610120, “New Broad-Spectrum Antibiotics Containing a Pyrrolobenzodiazepine Ring with Activity against Multidrug-Resistant Gram-Negative Bacteria” (J Med Chem, 2020).
Values after ≈ are worked out from the molar mass of the structure shown.

Assays:
Escherichia coli = experiment: Antimicrobial activity against multidrug-resistant Escherichia coli NCTC 12923 assessed as mutation frequency at 4 times MIC measured after 48 hrs; format: functional
Acinetobacter baumannii [1] = experiment: Antimicrobial activity against Acinetobacter baumannii ATCC 17978 assessed as mutation frequency at 4 times MIC measured after 48 hrs; format: functional
[2] = molecular target: T1, Protein RecA (Escherichia coli K-12) (UniProt P0A7G6); experiment: Induction of Escherichia coli K12 MG1655 recA promotor measured at 30 mins interval for 20 hrs by fluorescence assay relative to control; settings: Escherichia coli str. K-12 substr. MG1655
T1 sequence (whole entry): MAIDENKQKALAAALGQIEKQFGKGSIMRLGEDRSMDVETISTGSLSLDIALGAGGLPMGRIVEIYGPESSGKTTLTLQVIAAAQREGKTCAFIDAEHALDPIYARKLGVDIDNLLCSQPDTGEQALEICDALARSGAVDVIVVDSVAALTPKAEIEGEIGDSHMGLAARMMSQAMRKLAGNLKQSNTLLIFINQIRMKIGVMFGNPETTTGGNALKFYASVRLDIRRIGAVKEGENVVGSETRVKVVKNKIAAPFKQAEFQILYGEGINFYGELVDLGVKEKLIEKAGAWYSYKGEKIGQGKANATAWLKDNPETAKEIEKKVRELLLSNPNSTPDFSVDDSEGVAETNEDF

[3] = molecular target: T2, LexA repressor (Escherichia coli) (UniProt P0A7C2); experiment: Induction of Escherichia coli K12 MG1655 lexA promotor measured at 30 mins interval for 20 hrs by fluorescence assay relative to control; settings: Escherichia coli str. K-12 substr. MG1655
T2 sequence (whole entry): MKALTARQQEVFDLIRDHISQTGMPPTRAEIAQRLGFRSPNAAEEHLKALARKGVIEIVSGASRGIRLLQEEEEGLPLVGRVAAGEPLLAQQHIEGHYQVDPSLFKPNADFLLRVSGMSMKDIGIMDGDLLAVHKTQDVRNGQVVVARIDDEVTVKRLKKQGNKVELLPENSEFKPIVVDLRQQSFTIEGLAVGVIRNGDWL

[4] = molecular target: T3, DNA repair protein RecN (Escherichia coli) (UniProt P05824); experiment: Induction of Escherichia coli K12 MG1655 recN promotor measured at 30 mins interval for 20 hrs by fluorescence assay relative to control; settings: Escherichia coli str. K-12 substr. MG1655
T3 sequence (whole entry): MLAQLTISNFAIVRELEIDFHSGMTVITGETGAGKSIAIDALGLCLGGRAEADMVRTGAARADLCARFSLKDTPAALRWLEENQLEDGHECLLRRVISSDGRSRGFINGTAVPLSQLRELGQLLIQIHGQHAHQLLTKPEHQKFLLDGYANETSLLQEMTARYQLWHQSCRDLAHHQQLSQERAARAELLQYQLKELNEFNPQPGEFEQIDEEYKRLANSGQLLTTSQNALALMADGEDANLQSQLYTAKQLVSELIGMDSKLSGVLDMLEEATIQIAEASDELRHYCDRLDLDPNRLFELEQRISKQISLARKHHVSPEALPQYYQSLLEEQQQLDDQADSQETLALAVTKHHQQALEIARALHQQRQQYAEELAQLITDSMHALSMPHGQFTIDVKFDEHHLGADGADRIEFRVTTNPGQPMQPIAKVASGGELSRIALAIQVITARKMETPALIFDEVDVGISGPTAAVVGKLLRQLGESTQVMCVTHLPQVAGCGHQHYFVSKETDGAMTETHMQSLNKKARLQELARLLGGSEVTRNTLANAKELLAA

[5] = molecular target: T4, Cell division inhibitor SulA (Escherichia coli K-12) (UniProt P0AFZ5); experiment: Induction of Escherichia coli K12 MG1655 sulA promotor measured at 30 mins interval for 20 hrs by fluorescence assay relative to control; settings: Escherichia coli str. K-12 substr. MG1655
T4 sequence (whole entry): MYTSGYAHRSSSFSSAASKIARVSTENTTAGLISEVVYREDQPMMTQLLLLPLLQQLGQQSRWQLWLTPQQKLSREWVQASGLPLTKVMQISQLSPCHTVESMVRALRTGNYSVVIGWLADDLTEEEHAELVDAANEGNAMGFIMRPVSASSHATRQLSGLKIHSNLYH

Klebsiella pneumoniae [6] = experiment: Antimicrobial activity against Klebsiella pneumoniae M6 assessed as mutation frequency at 4 times MIC measured after 48 hrs; format: functional
Klebsiella pneumoniae [7] = experiment: Antibacterial activity against multidrug-resistant Klebsiella pneumoniae NCTC 13368 measured after 10 passages by microdilution broth method; format: functional
Acinetobacter baumannii [8] = experiment: Antimicrobial activity against Acinetobacter baumannii ATCC 17978 by microdilution broth method; format: functional
Acinetobacter baumannii [9] = experiment: Antimicrobial activity against multidrug-resistant Acinetobacter baumannii AYE by microdilution broth method; format: functional
Klebsiella pneumoniae [10] = experiment: Antimicrobial activity against Klebsiella pneumoniae M6 by microdilution broth method; format: functional
Klebsiella pneumoniae [11] = experiment: Antimicrobial activity against multidrug-resistant Klebsiella pneumoniae NCTC 13368 by microdilution broth method; format: functional
Pseudomonas aeruginosa [12] = experiment: Antimicrobial activity against Pseudomonas aeruginosa PAO1 by microdilution broth method; format: functional
Pseudomonas aeruginosa [13] = experiment: Antimicrobial activity against multidrug-resistant Pseudomonas aeruginosa NCTC 13437 by microdilution broth method; format: functional
Enterococcus faecium = experiment: Antibacterial activity against vancomycin resistant Enterococcus faecium NCTC 12204 by microdilution broth method; format: functional
Enterococcus faecalis [14] = experiment: Antibacterial activity against vancomycin resistant Enterococcus faecalis NCTC 12201 by microdilution broth method; format: functional
Enterococcus faecalis [15] = experiment: Antibacterial activity against vancomycin sensitive Enterococcus faecalis NCTC 775 by microdilution broth method; format: functional
Staphylococcus aureus [16] = experiment: Antibacterial activity against methicillin resistant Staphylococcus aureus NCTC 13616 by microdilution broth method; format: functional
Staphylococcus aureus [17] = experiment: Antibacterial activity against methicillin resistant Staphylococcus aureus NCTC 13277 by microdilution broth method; format: functional
Staphylococcus aureus [18] = experiment: Antibacterial activity against methicillin sensitive Staphylococcus aureus NCTC 6571 by microdilution broth method; format: functional
DNA [19] = experiment: Stabilization of 5'-FAM-TAT-ATA-TAG-ATA-TTT-TTT-TAT-CTA-TAT-ATA-3'-TAMRA DNA (unknown origin) assessed as reduction in change in melting temperature at 1:1 to 5:1 ligand to DNA ratio measured after 3 hrs by FRET-based assay relative to control; format: ADME, nucleic-acid assay
DNA [20] = experiment: Stabilization of 5'-FAM-TAT-AGA-TAT-AGA-TAT-TTT-ATA-TCT-ATA-TCT-ATA-3'-TAMRA DNA (unknown origin) assessed as reduction in change in melting temperature at 1:1 to 5:1 ligand to DNA ratio measured after 3 hrs by FRET-based assay relative to control; format: ADME, nucleic-acid assay
[21] = Cytotoxicity against human WI38 cells assessed as cell viability at 20 uM measured after 24 hrs by MTT assay relative to control; format: cell-based, WI-38; settings: read-out: Activity
[22] = Selectivity ratio of cytotoxicity against human WI38 cells to MIC for Acinetobacter baumannii ATCC 17978; format: toxicity, cell-based
[23] = Selectivity ratio of cytotoxicity against human WI38 cells to MIC for multidrug-resistant Acinetobacter baumannii AYE; format: toxicity, cell-based
[24] = Selectivity ratio of cytotoxicity against human WI38 cells to MIC for Klebsiella pneumoniae M6; format: toxicity, cell-based
[25] = Selectivity ratio of cytotoxicity against human WI38 cells to MIC for multidrug-resistant Klebsiella pneumoniae NCTC 13368; format: toxicity, cell-based
[26] = Selectivity ratio of cytotoxicity against human WI38 cells to MIC for Pseudomonas aeruginosa PAO1; format: toxicity, cell-based
[27] = Selectivity ratio of cytotoxicity against human WI38 cells to MIC for multidrug-resistant Pseudomonas aeruginosa NCTC 13437; format: toxicity, cell-based
[28] = Selectivity ratio of cytotoxicity against human WI38 cells to MIC for vancomycin resistant Enterococcus faecium NCTC 12204; format: toxicity, cell-based
[29] = Selectivity ratio of cytotoxicity against human WI38 cells to MIC for vancomycin resistant Enterococcus faecalis NCTC 12201; format: toxicity, cell-based
[30] = Selectivity ratio of cytotoxicity against human WI38 cells to MIC for vancomycin sensitive Enterococcus faecalis NCTC 775; format: toxicity, cell-based
[31] = Selectivity ratio of cytotoxicity against human WI38 cells to MIC for methicillin resistant Staphylococcus aureus NCTC 13616; format: toxicity, cell-based
[32] = Selectivity ratio of cytotoxicity against human WI38 cells to MIC for methicillin resistant Staphylococcus aureus NCTC 13277; format: toxicity, cell-based
[33] = Selectivity ratio of cytotoxicity against human WI38 cells to MIC for methicillin sensitive Staphylococcus aureus NCTC 6571; format: toxicity, cell-based

Compound	MIC (Acinetobacter baumannii [8])	MIC (Acinetobacter baumannii [9])	MIC (Klebsiella pneumoniae [10])	MIC (Klebsiella pneumoniae [11])	MIC (Pseudomonas aeruginosa [12])	MIC (Pseudomonas aeruginosa [13])	MIC (Enterococcus faecium)	MIC (Enterococcus faecalis [14])	MIC (Enterococcus faecalis [15])	MIC (Staphylococcus aureus [16])	MIC (Staphylococcus aureus [17])	MIC (Staphylococcus aureus [18])	fold change (FC) (DNA [19])	fold change (FC) (DNA [20])	viability at 24 h, 20 µM [21]	selectivity ratio [22]	selectivity ratio [23]	selectivity ratio [24]	selectivity ratio [25]	selectivity ratio [26]	further results
O=C(O)c1cn(C2CC2)c2cc(N3CCNCC3)c(F)cc2c1=O [CIPROFLOXACIN]																					Activity (Escherichia coli): 4.4 ×10⁻⁷ No_unit; Activity (Acinetobacter baumannii [1]): 8.4 ×10⁻⁷ No_unit; fold change (FC) [2]: 20 to 35; fold change (FC) [3]: 5 to 13; fold change (FC) [4]: 14 to 32; fold change (FC) [5]: 17 to 41; Activity (Klebsiella pneumoniae [6]): 8.9 ×10⁻⁷ No_unit
COLISTIN																					MIC (Klebsiella pneumoniae [7]): 32 µg/mL
CCN(CC)C(=O)c1cc2cc(NC(=O)c3cc(NC(=O)CCCOc4cc5c(cc4OC)C(=O)N4CCC[C@H]4C=N5)cn3C)ccc2o1	4 µg/mL (≈ 5.98 µM)	4 µg/mL (≈ 5.98 µM)	8 µg/mL (≈ 12 µM)	64 µg/mL (≈ 95.7 µM)	128 µg/mL (≈ 191 µM)	32 µg/mL (≈ 47.9 µM)	≤ 0.125 µg/mL	≤ 0.125 µg/mL	0.25 µg/mL (≈ 0.374 µM)	0.25 µg/mL (≈ 0.374 µM)	0.5 µg/mL (≈ 0.748 µM)	≤ 0.125 µg/mL	3 to 4	3 to 4	> 85%	10	10	10	10	10	selectivity ratio [27]: 10; selectivity ratio [28]: 100; selectivity ratio [29]: 100; selectivity ratio [30]: 100; selectivity ratio [31]: 100; selectivity ratio [32]: 100; selectivity ratio [33]: 100
COc1cc2c(cc1OCCCC(=O)Nc1cc(C(=O)Nc3ccc4oc(C(=O)N(C)C)cc4c3)n(C)c1)N=C[C@@H]1CCCN1C2=O	4 µg/mL (≈ 6.24 µM)	4 µg/mL (≈ 6.24 µM)	0.5 µg/mL (≈ 0.78 µM)	16 µg/mL (≈ 25 µM)	128 µg/mL (≈ 200 µM)	64 µg/mL (≈ 99.9 µM)	≤ 0.125 µg/mL	0.5 µg/mL (≈ 0.78 µM)	≤ 0.125 µg/mL	≤ 0.125 µg/mL	≤ 0.125 µg/mL	≤ 0.125 µg/mL	3 to 4	3 to 4	> 85%	10	10	10	10	10	selectivity ratio [27]: 10; selectivity ratio [28]: 100; selectivity ratio [29]: 100; selectivity ratio [30]: 100; selectivity ratio [31]: 100; selectivity ratio [32]: 100; selectivity ratio [33]: 100
COc1cc2c(cc1OCCCC(=O)Nc1cc(C(=O)Nc3ccc(-c4cc(C(=O)N5CCCCC5)n(C)c4)cc3)n(C)c1)N=C[C@@H]1CCCN1C2=O	2 µg/mL (≈ 2.78 µM)	2 µg/mL (≈ 2.78 µM)	16 µg/mL (≈ 22.2 µM)	> 128 µg/mL	> 128 µg/mL	> 128 µg/mL	≤ 0.03 µg/mL	≤ 0.03 µg/mL	0.125 µg/mL (≈ 0.174 µM)	0.06 µg/mL (≈ 0.0834 µM)	0.125 µg/mL (≈ 0.174 µM)	≤ 0.03 µg/mL	3 to 4	3 to 4	> 85%	10	10	10	10	10	selectivity ratio [27]: 10; selectivity ratio [28]: 100; selectivity ratio [29]: 100; selectivity ratio [30]: 100; selectivity ratio [31]: 100; selectivity ratio [32]: 100; selectivity ratio [33]: 100
